Laboratory results from US9532990B2 (Zhejiang DTRM Biopharma Co. Ltd., priority 2014, dated 2017).

target: BTK wild type (Homo sapiens (Human), UniProt Q06187); assay: Inhibition assay of BTK kinase activity (HTRF); assay type: biochemical; details: all compounds with IC50 of less 10 nM; read-out: IC50 (BTK)
Experimental: Inhibition Assay of BTK Kinase Activity:
The enzyme reaction mixture of BTK wild type standard HTRF assay contained 1 nM BTK wild type, 1 μM biotin-TK1 peptide, and 30 μM ATP in a buffer. The enzyme reaction were carried out at room temperature for 60 minutes. […] The plates were incubated at room temperature for 60 minutes and then read in the Envision plate reader.

BTK wild type, sequence (Q06187 whole entry): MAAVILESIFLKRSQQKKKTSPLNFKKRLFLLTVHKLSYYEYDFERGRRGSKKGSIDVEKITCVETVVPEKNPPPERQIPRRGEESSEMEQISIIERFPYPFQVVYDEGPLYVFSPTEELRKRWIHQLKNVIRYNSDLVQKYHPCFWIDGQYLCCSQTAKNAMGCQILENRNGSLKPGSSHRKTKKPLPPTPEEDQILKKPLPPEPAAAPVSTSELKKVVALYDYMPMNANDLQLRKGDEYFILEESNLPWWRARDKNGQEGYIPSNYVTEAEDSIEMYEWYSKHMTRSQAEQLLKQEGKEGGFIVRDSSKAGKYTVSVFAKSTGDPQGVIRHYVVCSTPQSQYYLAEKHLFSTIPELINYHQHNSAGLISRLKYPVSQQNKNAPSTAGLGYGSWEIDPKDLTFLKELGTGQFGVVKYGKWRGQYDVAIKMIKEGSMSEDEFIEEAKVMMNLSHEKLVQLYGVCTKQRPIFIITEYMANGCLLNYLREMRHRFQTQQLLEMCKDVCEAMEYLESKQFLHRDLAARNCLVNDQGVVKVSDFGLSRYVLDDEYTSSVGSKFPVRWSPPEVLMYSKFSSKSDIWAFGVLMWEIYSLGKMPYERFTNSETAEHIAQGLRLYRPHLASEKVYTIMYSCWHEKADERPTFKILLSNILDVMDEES

In the case of `COC(=O)NC(=O)/C=C\C(=O)N1CCCC(n2nc(-c3ccc(Oc4c(F)c(F)cc(F)c4F)cc3F)c3c(N)ncnc32)C1` (stereo not shown) [Compound 47, (Z)-methyl 4-(3-(4-amino-3-(2-fluoro-4-(2,3,5,6-tetrafluorophenoxy)phenyl)-1H-pyrazolo[3,4-d]pyrimidin-1-yl)piperidin-1-yl)-4-oxobut-2-enoylcarbamate], the IC50 is reported as < 10 nM.

same assay, conditions: read-out: BTK IC50

Compared with `C=CC(=O)N[C@@H]1CC[C@@H](n2nc(-c3ccc(Oc4c(F)c(F)cc(F)c4F)cc3F)c3c(N)ncnc32)C1` [Compound 25, N-((1r,3r)-3-(4-amino-3-(2-fluoro-4-(2,3,5,6-tetrafluorophenoxy)phenyl)-1H-pyrazolo[3,4-d]pyrimidin-1-yl)cyclopentyl)acrylamide], `C=CC(=O)N[C@H]1CC[C@@H](n2nc(-c3ccc(Oc4c(F)c(F)cc(F)c4F)cc3F)c3c(N)ncnc32)C1` [Compound 26, N-((1s,3r)-3-(4-amino-3-(2-fluoro-4-(2,3,5,6-tetrafluorophenoxy)phenyl)-1H-pyrazolo[3,4-d]pyrimidin-1-yl)cyclopentyl)acrylamide] is 2-fold higher in IC50: 17 nM for the first, 34 nM for the second. The first is the more potent here.

Compared with `C=CC(=O)N1CCC(n2nc(-c3ccc(Oc4c(F)c(F)cc(F)c4F)cc3F)c3c(N)ncnc32)CC1` [Compound 27, 1-(4-(4-amino-3-(2-fluoro-4-(2,3,5,6-tetrafluorophenoxy)phenyl)-1H-pyrazolo[3,4-d]pyrimidin-1-yl)piperidin-1-yl)prop-2-en-1-one], `C=CC(=O)N1CCC[C@H](n2nc(-c3ccc(Oc4c(F)c(F)cc(F)c4F)cc3F)c3c(N)ncnc32)C1` [Compound 34, 1-((S)-3-(4-amino-3-(2-fluoro-4-(2,3,5,6-tetrafluorophenoxy)phenyl)-1H-pyrazolo[3,4-d]pyrimidin-1-yl)piperidin-1-yl)prop-2-en-1-one] is 9.7-fold lower in IC50: 223 nM for the first, 23 nM for the second.

Going from `C=CC(=O)NCC1CCC(n2nc(-c3ccc(Oc4c(F)c(F)cc(F)c4F)cc3F)c3c(N)ncnc32)C1` (stereo not shown) [Compound 28, N-((3-(4-amino-3-(2-fluoro-4-(2,3,5,6-tetrafluorophenoxy)phenyl)-1H-pyrazolo[3,4-d]pyrimidin-1-yl)cyclopentyl)methyl)acrylamide] to `C=CC(=O)NC1CCC(Cn2nc(-c3ccc(Oc4c(F)c(F)cc(F)c4F)cc3F)c3c(N)ncnc32)C1` (stereo not shown) [Compound 32, N-(3-((4-amino-3-(2-fluoro-4-(2,3,5,6-tetrafluorophenoxy)phenyl)-1H-pyrazolo[3,4-d]pyrimidin-1-yl)methyl)cyclopentyl)acrylamide], the IC50 rises from 7 nM to 7220 nM (1000-fold).

Going from `C=CC(=O)N1CCC(Cn2nc(-c3ccc(Oc4c(F)c(F)cc(F)c4F)cc3F)c3c(N)ncnc32)C1` (stereo not shown) [Compound 29, 1-(3-((4-amino-3-(2-fluoro-4-(2,3,5,6-tetrafluorophenoxy)phenyl)-1H-pyrazolo[3,4-d]pyrimidin-1-yl)methyl)pyrrolidin-1-yl)prop-2-en-1-one] to `C=CC(=O)N1CCCC(Cn2nc(-c3ccc(Oc4c(F)c(F)cc(F)c4F)cc3F)c3c(N)ncnc32)C1` (stereo not shown) [Compound 31, 1-(3-((4-amino-3-(2-fluoro-4-(2,3,5,6-tetrafluorophenoxy)phenyl)-1H-pyrazolo[3,4-d]pyrimidin-1-yl)methyl)piperidin-1-yl)prop-2-en-1-one], the IC50 falls from 26 nM to 15 nM (1.7-fold). The second is the more potent here.

Going from `C=CC(=O)N1CCC(Cn2nc(-c3ccc(Oc4c(F)c(F)cc(F)c4F)cc3F)c3c(N)ncnc32)CC1` [Compound 30, 1-(4-((4-amino-3-(2-fluoro-4-(2,3,5,6-tetrafluorophenoxy)phenyl)-1H-pyrazolo[3,4-d]pyrimidin-1-yl)methyl)piperidin-1-yl)prop-2-en-1-one] to `CNC(=O)N1CCCC(n2nc(-c3ccc(Oc4c(F)c(F)cc(F)c4F)cc3F)c3c(N)ncnc32)C1` (stereo not shown) [Compound 52, 3-(4-amino-3-(2-fluoro-4-(2,3,5,6-tetrafluorophenoxy)phenyl)-1H-pyrazolo[3,4-d]pyrimidin-1-yl)-N-methylpiperidine-1-carboxamide], the IC50 rises from 24 nM to 60 nM (2.5-fold).

Compared with `Nc1ncnc2c1c(-c1ccc(Oc3c(F)c(F)cc(F)c3F)cc1F)nn2C1CCCC(N2C(=O)C=CC2=O)C1` (stereo not shown) [Compound 36, 1-(3-(4-amino-3-(2-fluoro-4-(2,3,5,6-tetrafluorophenoxy)phenyl)-1H-pyrazolo[3,4-d]pyrimidin-1-yl)cyclohexyl)-1H-pyrrole-2,5-dione], `Nc1ncnc2c1c(-c1ccc(Oc3c(F)c(F)cc(F)c3F)cc1F)nn2[C@H]1CC[C@H](N2C(=O)C=CC2=O)C1` [Compound 37, 1-((1 S,3S)-3-(4-amino-3-(2-fluoro-4-(2,3,5,6-tetrafluorophenoxy)phenyl)-1H-pyrazolo[3,4-d]pyrimidin-1-yl)cyclopentyl)-1H-pyrrole-2,5-dione] is 6-fold lower in IC50: 593 nM for the first, 99 nM for the second. The second is the more potent here.

`Nc1ncnc2c1c(-c1ccc(Oc3c(F)c(F)cc(F)c3F)cc1F)nn2CCCN1C(=O)C=CC1=O` [Compound 38, 1-(3-(4-amino-3-(2-fluoro-4-(2,3,5,6-tetrafluorophenoxy)phenyl)-1H-pyrazolo[3,4-d]pyrimidin-1-yl)propyl)-1H-pyrrole-2,5-dione] and `Nc1ncnc2c1c(-c1ccc(Oc3c(F)c(F)cc(F)c3F)cc1F)nn2CCN1C(=O)C=CC1=O` [Compound 51, 1-(2-(4-amino-3-(2-fluoro-4-(2,3,5,6-tetrafluorophenoxy)phenyl)-1H-pyrazolo[3,4-d]pyrimidin-1-yl)ethyl)-1H-pyrrole-2,5-dione] are within 1.5-fold of each other in IC50: 379 nM for the first, 527 nM for the second.

Going from `Nc1ncnc2c1c(-c1ccc(Oc3c(F)c(F)cc(F)c3F)cc1F)nn2C1CCC(N2C(=O)CSC2=O)CC1` (stereo not shown) [Compound 40, 3-(4-(4-amino-3-(2-fluoro-4-(2,3,5,6-tetrafluorophenoxy)phenyl)-1H-pyrazolo[3,4-d]pyrimidin-1-yl)cyclohexyl)thiazolidine-2,4-dione] to `CC(=O)CC(=O)N1CCCC(n2nc(-c3ccc(Oc4c(F)c(F)cc(F)c4F)cc3F)c3c(N)ncnc32)C1` (stereo not shown) [Compound 44, 1-(3-(4-amino-3-(2-fluoro-4-(2,3,5,6-tetrafluorophenoxy)phenyl)-1H-pyrazolo[3,4-d]pyrimidin-1-yl)piperidin-1-yl)butane-1,3-dione], the IC50 falls from 1640 nM to 374 nM (4.4-fold).

Compared with `NC(=O)/C=C/C(=O)N1CCCC(n2nc(-c3ccc(Oc4c(F)c(F)cc(F)c4F)cc3F)c3c(N)ncnc32)C1` (stereo not shown) [Compound 41, (E)-4-(3-(4-amino-3-(2-fluoro-4-(2,3,5,6-tetrafluorophenoxy)phenyl)-1H-pyrazolo[3,4-d]pyrimidin-1-yl)piperidin-1-yl)-4-oxobut-2-enamide], `CNC(=O)/C=C/C(=O)N1CCCC(n2nc(-c3ccc(Oc4c(F)c(F)cc(F)c4F)cc3F)c3c(N)ncnc32)C1` (stereo not shown) [Compound 42, (E)-4-(3-(4-amino-3-(2-fluoro-4-(2,3,5,6-tetrafluorophenoxy)phenyl)-1H-pyrazolo[3,4-d]pyrimidin-1-yl)piperidin-1-yl)-N-methyl-4-oxobut-2-enamide] is 2.2-fold higher in IC50: 17 nM for the first, 38 nM for the second. The first is the more potent here.

Going from `N=C(N)NC(=O)N1CCCC(n2nc(-c3ccc(Oc4c(F)c(F)cc(F)c4F)cc3F)c3c(N)ncnc32)C1` (stereo not shown) [Compound 43, N-[3-[4-amino-3-[2-fluoro-4-(2,3,5,6-trifluorophenoxy)phenyl]-1H-pyrazolo[3,4-d]pyrimidin-1-yl]piperidine-1-carbonyl] formamidine] to `C=C(CO)C(=O)N1CCCC(n2nc(-c3ccc(Oc4c(F)c(F)cc(F)c4F)cc3F)c3c(N)ncnc32)C1` (stereo not shown) [Compound 50, 1-(3-(4-amino-3-(2-fluoro-4-(2,3,5,6-tetrafluorophenoxy)phenyl)-1H-pyrazolo[3,4-d]pyrimidin-1-yl)piperidin-1-yl)-2-(hydroxymethyl)prop-2-en-1-one], the IC50 falls from 131 nM to 87 nM (1.5-fold).

Going from `COC(=O)NC(=O)/C=C\C(=O)N1CCCC(n2nc(-c3ccc(Oc4c(F)c(F)cc(F)c4F)cc3F)c3c(N)ncnc32)C1` (stereo not shown) [Compound 47, (Z)-methyl 4-(3-(4-amino-3-(2-fluoro-4-(2,3,5,6-tetrafluorophenoxy)phenyl)-1H-pyrazolo[3,4-d]pyrimidin-1-yl)piperidin-1-yl)-4-oxobut-2-enoylcarbamate] to `C/C=C(\C(=O)OC)C(=O)N1CCCC(n2nc(-c3ccc(Oc4c(F)c(F)cc(F)c4F)cc3F)c3c(N)ncnc32)C1` (stereo not shown) [Compound 48, (Z)-methyl 2-(3-(4-amino-3-(2-fluoro-4-(2,3,5,6-tetrafluorophenoxy)phenyl)-1H-pyrazolo[3,4-d]pyrimidin-1-yl)piperidine-1-carbonyl)but-2-enoate], the IC50 rises from 6 nM to 964 nM (160-fold). The first is the more potent here.

`C=C(C#N)C(=O)N1CCCC(n2nc(-c3ccc(Oc4c(F)c(F)cc(F)c4F)cc3F)c3c(N)ncnc32)C1` (stereo not shown) [Compound 49, 2-(3-(4-amino-3-(2-fluoro-4-(2,3,5,6-tetrafluorophenoxy)phenyl)-1H-pyrazolo[3,4-d]pyrimidin-1-yl)piperidine-1-carbonyl)acrylonitrile] and `CNC(=O)C(=O)N1CCCC(n2nc(-c3ccc(Oc4c(F)c(F)cc(F)c4F)cc3F)c3c(N)ncnc32)C1` (stereo not shown) [Compound 57, 2-(3-(4-amino-3-(2-fluoro-4-(2,3,5,6-tetrafluorophenoxy)phenyl)-1H-pyrazolo[3,4-d]pyrimidin-1-yl)piperidin-1-yl)-N-methyl-2-oxoacetamide] are within 1.5-fold of each other in IC50: 509 nM for the first, 692 nM for the second.

`CN/C(=N\C#N)N1CCCC(n2nc(-c3ccc(Oc4c(F)c(F)cc(F)c4F)cc3F)c3c(N)ncnc32)C1` (stereo not shown) [Compound 54, 3-[4-amino-3-[2-fluoro-4-(2,3,5,6-fluorophenoxy)phenyl]-1H-pyrazolo[3,4-d]pyrimidine-1-yl]-N′-cyano-N-methyl-piperidine-1-carboxamidine] and `CN/C(=C\[N+](=O)[O-])N1CCCC(n2nc(-c3ccc(Oc4c(F)c(F)cc(F)c4F)cc3F)c3c(N)ncnc32)C1` (stereo not shown) [Compound 55, 1-[3-[4-amino-3-[2-fluoro-4-(2,3,5,6-three-fluorophenoxy)phenyl]-1H-pyrazolo[3,4-d]pyrimidin-1-yl]-1-piperidinyl]-1-(methylamino)-2-nitro ethylene] are within 1.5-fold of each other in IC50: 1620 nM for the first, 1740 nM for the second.

In the case of `CNC(=O)CN1CCCC(n2nc(-c3ccc(Oc4c(F)c(F)cc(F)c4F)cc3F)c3c(N)ncnc32)C1` (stereo not shown) [Compound 56, 2-(3-(4-amino-3-(2-fluoro-4-(2,3,5,6-tetrafluorophenoxy)phenyl)-1H-pyrazolo[3,4-d]pyrimidin-1-yl)piperidin-1-yl)-N-methylacetamide], the IC50 is reported as 365 nM.
